Measured values taken from ChEMBL document CHEMBL1135773, “Purine and pyrimidine (P2) receptors as drug targets” (J Med Chem, 2002).

What was measured:
[1] = biological target: T1, P2X purinoceptor 1 (Rattus norvegicus, UniProt P47824); assay: The compound was evaluated for antagonist activity against P2X purinoceptor 1 (P2X1) from rat vas deferens; type: functional
T1 sequence (P47824 whole entry): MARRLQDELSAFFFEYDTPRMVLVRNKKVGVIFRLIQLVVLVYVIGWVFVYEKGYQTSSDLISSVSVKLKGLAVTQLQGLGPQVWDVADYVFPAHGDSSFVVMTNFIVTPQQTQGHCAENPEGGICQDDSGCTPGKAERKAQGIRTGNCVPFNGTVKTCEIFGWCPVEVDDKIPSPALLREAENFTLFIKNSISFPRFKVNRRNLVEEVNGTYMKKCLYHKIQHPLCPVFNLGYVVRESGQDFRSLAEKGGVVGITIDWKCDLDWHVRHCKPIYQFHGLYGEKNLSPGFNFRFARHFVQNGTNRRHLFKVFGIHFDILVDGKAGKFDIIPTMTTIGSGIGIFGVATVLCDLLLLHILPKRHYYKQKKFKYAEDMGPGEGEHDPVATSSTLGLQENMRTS

[2] = biological target: T1, P2X purinoceptor 1; assay: Dissociation constant of the compound at P2X purinoceptor 1 (P2X1) from rat vas deferens was reported
[3] = biological target: T2, P2X purinoceptor 1 (Homo sapiens, UniProt P51575); assay: The compound was evaluated for antagonist activity against recombinant human P2X purinoceptor 1 (P2X1 ); type: functional
T2 sequence (P51575 whole entry): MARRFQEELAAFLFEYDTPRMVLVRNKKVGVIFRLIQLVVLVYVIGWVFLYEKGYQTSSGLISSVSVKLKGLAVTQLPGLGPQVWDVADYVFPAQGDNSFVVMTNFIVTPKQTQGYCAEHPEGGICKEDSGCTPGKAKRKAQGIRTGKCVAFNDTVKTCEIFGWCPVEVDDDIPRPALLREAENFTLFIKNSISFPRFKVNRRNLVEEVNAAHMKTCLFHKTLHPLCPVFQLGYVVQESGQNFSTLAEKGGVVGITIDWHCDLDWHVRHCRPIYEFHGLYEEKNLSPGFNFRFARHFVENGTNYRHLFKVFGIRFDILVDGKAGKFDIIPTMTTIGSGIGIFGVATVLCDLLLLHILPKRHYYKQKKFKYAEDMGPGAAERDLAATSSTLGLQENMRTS

[4] = biological target: T3, P2X purinoceptor 2 (Rattus norvegicus, UniProt P49653); assay: The compound was evaluated for antagonist activity against recombinant rat P2X purinoceptor 2 (P2X2) at 10 uM; type: functional
T3 sequence (P49653 whole entry): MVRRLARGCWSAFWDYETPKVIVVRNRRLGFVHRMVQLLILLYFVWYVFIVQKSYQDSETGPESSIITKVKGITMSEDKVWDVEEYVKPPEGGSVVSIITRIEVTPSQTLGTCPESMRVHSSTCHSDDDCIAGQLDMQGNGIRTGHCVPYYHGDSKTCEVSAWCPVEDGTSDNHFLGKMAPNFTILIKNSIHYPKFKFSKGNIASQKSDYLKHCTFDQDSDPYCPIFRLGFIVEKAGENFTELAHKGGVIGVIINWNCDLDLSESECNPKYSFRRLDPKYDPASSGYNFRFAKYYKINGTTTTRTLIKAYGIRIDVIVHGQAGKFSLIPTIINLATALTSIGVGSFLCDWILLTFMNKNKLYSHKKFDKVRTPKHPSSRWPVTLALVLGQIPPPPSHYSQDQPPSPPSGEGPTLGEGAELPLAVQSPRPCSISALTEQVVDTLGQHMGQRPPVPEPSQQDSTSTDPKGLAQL

[5] = biological target: T4, P2X purinoceptor 4 (Homo sapiens, UniProt Q99571); assay: The compound was evaluated for antagonist activity against recombinant human P2X purinoceptor 4 (P2X4); type: functional
T4 sequence (Q99571 whole entry): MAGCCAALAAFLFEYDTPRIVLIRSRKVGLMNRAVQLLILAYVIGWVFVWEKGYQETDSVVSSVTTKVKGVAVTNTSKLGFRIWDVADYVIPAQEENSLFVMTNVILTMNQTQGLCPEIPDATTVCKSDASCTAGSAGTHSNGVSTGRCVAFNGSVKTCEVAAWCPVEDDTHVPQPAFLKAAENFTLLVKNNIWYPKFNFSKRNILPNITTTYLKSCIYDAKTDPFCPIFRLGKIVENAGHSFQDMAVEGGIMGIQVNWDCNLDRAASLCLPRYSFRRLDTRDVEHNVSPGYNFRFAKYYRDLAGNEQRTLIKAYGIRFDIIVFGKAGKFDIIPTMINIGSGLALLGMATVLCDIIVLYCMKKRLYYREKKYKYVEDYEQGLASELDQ

[6] = biological target: T5, P2X purinoceptor 3 (Homo sapiens, UniProt P56373); assay: The compound was evaluated for antagonist activity against recombinant human P2X purinoceptor 3 (P2X3 ); type: functional
T5 sequence (P56373 whole entry): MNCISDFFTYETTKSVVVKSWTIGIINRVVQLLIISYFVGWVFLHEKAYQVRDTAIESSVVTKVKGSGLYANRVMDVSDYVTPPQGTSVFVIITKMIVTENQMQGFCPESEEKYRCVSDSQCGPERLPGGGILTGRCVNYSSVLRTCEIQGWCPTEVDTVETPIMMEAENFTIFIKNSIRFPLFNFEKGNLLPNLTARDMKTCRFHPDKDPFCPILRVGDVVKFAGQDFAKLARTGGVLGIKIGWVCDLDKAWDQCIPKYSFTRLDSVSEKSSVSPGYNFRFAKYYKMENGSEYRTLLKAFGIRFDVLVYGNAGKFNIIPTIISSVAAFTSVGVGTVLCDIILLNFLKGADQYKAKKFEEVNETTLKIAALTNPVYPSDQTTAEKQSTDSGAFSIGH

[7] = biological target: P2X purinoceptor 6 (Rattus norvegicus, UniProt P51579); assay: Antagonist activity against recombinant rat P2X purinoceptor 6 (P2X6 ); type: functional
[8] = biological target: P2Y purinoceptor 4 (Homo sapiens, UniProt P51582); assay: The compound was evaluated for antagonist activity against phospholipase C coupled recombinant human P2Y purinoceptor 4 (P2Y4); type: functional
[9] = biological target: T6, P2X purinoceptor 4 (Rattus norvegicus, UniProt P51577); assay: Antagonist activity against recombinant rat P2X purinoceptor 4 (P2X4) at 3 uM, expressed in Xenopus oocytes; type: functional, cell-based, Oocyte
T6 sequence (P51577 whole entry): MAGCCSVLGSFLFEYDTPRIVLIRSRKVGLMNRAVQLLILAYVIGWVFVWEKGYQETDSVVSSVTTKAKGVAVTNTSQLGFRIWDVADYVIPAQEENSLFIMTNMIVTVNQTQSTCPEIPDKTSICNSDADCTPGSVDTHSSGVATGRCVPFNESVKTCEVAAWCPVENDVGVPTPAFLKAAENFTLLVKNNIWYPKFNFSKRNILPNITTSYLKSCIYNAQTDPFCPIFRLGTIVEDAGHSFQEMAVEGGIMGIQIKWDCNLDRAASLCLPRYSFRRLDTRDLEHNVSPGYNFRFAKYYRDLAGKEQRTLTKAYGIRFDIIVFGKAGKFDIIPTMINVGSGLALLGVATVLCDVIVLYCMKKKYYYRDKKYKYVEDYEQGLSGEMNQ

[10] = biological target: T1, P2X purinoceptor 1; assay: The compound was evaluated for antagonist activity against recombinant rat P2X purinoceptor 1 (P2X1) at 1 uM, expressed in Xenopus oocytes; type: functional, cell-based, Oocyte
[11] = biological target: P2Y purinoceptor 1 (Meleagris gallopavo, UniProt P49652); assay: Evaluated for antagonist activity against phospholipase C coupled P2Y purinoceptor 1 (P2Y1) of turkey erythrocytes; type: functional
[12] = biological target: T7, P2X purinoceptor 5 (Rattus norvegicus, UniProt P51578); assay: Antagonist activity against recombinant rat P2X purinoceptor 5 (P2X5); type: functional
T7 sequence (P51578 whole entry): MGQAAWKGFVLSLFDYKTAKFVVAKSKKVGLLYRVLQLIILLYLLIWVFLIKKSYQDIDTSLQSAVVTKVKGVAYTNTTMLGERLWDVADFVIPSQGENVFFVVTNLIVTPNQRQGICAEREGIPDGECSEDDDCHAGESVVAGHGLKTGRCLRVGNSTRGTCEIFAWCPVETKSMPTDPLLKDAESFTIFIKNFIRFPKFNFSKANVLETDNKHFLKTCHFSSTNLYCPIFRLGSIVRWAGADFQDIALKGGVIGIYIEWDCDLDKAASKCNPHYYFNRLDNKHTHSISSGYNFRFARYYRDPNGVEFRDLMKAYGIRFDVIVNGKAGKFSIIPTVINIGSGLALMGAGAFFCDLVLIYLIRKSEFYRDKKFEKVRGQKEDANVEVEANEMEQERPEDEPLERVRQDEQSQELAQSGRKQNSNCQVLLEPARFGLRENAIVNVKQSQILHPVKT

[13] = biological target: P2Y purinoceptor 2 (Homo sapiens, UniProt P41231); assay: Evaluated for agonist activity against phospholipase C coupled recombinant human P2Y purinoceptor 2 (P2Y2); type: functional
[14] = biological target: T8, P2Y purinoceptor 11 (Homo sapiens, UniProt Q96G91); assay: The compound was evaluated for antagonist activity against phospholipase C coupled human P2Y purinoceptor 11 (P2Y11); type: functional
T8 sequence (Q96G91 whole entry): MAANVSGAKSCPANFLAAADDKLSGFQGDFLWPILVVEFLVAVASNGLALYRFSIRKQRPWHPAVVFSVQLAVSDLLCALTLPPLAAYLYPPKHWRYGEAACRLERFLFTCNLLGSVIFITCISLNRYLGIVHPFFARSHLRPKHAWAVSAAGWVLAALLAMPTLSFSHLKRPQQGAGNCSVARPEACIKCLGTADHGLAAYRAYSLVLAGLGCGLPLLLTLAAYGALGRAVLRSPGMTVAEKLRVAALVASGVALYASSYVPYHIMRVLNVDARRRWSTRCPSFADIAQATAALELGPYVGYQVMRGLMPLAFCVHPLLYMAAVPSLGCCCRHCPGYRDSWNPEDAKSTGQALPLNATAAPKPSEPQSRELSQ

[15] = biological target: T3, P2X purinoceptor 2; assay: The compound was evaluated for antagonist activity against recombinant rat receptor P2X purinoceptor 2 (P2X2) at 30 uM, expressed in Xenopus oocytes; type: functional, cell-based, Oocyte
[16] = biological target: P2Y purinoceptor 6 (Homo sapiens, UniProt Q15077); assay: The compound was evaluated for antagonist activity against phospholipase C coupled recombinant human P2Y purinoceptor 6 (P2Y6); type: functional; conditions: concentration not given here
[17] = biological target: P2Y purinoceptor 12 (Rattus norvegicus, UniProt Q9EPX4); assay: Antagonist activity against phospholipase C coupled rat P2Y purinoceptor 12 (P2Y12); type: functional
[18] = biological target: P2X purinoceptor 3 (Rattus norvegicus, UniProt P49654); assay: The compound was evaluated for antagonist activity against recombinant rat P2X purinoceptor 3 (P2X3) at 3 uM, expressed in Xenopus oocytes; type: functional, cell-based, Oocyte
[19] = biological target: P2X purinoceptor 7 (Rattus norvegicus, UniProt Q64663); assay: The compound was evaluated for antagonist activity against P2X purinoceptor 7 (P2X7) in rat parotid acinar cells; type: functional, cell-based
[20] = biological target: P2Y purinoceptor 1 (Meleagris gallopavo); assay: The compound was evaluated for antagonist activity against phospholipase C coupled P2Y purinoceptor 1 (P2Y1) of turkey erythrocytes
[21] = biological target: T1, P2X purinoceptor 1; assay: The compound was evaluated for antagonist activity against P2X purinoceptor 1 (P2X1) like receptor from rat vas deferens; type: functional
[22] = biological target: P2Y purinoceptor 1 (Cavia porcellus); assay: The compound was evaluated for antagonistic activity at P2Y purinoceptor 1 (P2Y1) from guinea pig taenia coli
[23] = biological target: T6, P2X purinoceptor 4; assay: The compound was evaluated for antagonist activity against recombinant rat P2X purinoceptor 4 (P2X4) 3 uM; type: functional
[24] = biological target: T3, P2X purinoceptor 2; assay: The compound was evaluated for antagonist activity against recombinant rat P2X purinoceptor 2 (P2X2) at 30 uM; type: functional
[25] = biological target: T1, P2X purinoceptor 1; assay: The compound was evaluated for antagonist activity against recombinant rat P2X purinoceptor 1 (P2X1); type: functional
[26] = biological target: T6, P2X purinoceptor 4; assay: The compound was evaluated for antagonist activity against recombinant rat P2X purinoceptor 4 (P2X4) at 10 uM; type: functional
[27] = biological target: P2Y purinoceptor 12 (Homo sapiens, UniProt Q9H244); assay: The compound was evaluated for antagonist activity against phospholipase C coupled human P2Y purinoceptor 12 (P2Y12); type: functional
[28] = biological target: T8, P2Y purinoceptor 11; assay: Agonist activity against phospholipase C coupled human P2Y purinoceptor 11 (P2Y11); type: functional

P2Y purinoceptor 1, sequence (P49652 whole entry): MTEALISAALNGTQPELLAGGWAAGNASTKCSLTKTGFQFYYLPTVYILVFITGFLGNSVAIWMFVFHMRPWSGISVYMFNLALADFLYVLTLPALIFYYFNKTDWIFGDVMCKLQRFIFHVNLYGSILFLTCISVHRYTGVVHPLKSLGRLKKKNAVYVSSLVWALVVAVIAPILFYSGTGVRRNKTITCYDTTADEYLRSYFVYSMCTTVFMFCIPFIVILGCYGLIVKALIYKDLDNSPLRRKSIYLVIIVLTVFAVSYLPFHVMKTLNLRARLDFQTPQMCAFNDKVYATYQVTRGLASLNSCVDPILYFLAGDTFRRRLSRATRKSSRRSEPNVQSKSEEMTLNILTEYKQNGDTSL
P2Y purinoceptor 6, sequence (Q15077 whole entry): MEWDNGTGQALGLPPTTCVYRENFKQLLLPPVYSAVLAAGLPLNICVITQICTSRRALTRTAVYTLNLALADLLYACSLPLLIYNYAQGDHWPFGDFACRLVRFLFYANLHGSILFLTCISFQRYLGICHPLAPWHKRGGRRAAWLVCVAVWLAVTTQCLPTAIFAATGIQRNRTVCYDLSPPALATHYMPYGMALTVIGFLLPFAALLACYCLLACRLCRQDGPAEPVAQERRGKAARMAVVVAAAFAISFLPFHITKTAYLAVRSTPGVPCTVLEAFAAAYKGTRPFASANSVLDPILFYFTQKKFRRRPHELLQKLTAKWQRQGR
P2Y purinoceptor 12 (Homo sapiens, UniProt Q9H244), sequence (Q9H244 whole entry): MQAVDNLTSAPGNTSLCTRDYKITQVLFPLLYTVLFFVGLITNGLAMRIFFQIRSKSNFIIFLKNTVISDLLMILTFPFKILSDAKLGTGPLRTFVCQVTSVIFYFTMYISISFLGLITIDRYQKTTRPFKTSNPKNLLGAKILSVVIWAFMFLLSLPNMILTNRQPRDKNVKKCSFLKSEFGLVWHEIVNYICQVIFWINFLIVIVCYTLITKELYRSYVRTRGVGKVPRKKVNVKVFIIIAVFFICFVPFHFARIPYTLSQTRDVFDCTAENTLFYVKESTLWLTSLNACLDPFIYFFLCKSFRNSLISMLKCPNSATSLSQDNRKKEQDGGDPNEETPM
P2Y purinoceptor 2, sequence (P41231 whole entry): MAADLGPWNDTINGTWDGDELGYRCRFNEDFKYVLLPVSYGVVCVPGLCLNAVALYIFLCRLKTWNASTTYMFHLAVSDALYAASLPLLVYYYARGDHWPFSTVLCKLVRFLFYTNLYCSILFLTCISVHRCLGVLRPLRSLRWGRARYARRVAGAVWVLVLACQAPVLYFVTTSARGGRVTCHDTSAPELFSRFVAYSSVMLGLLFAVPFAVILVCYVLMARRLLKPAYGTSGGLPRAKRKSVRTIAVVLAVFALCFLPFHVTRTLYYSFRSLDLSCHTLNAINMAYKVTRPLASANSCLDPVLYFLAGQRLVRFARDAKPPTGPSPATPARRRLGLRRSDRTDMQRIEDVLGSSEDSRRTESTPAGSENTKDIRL
P2X purinoceptor 6, sequence (P51579 whole entry): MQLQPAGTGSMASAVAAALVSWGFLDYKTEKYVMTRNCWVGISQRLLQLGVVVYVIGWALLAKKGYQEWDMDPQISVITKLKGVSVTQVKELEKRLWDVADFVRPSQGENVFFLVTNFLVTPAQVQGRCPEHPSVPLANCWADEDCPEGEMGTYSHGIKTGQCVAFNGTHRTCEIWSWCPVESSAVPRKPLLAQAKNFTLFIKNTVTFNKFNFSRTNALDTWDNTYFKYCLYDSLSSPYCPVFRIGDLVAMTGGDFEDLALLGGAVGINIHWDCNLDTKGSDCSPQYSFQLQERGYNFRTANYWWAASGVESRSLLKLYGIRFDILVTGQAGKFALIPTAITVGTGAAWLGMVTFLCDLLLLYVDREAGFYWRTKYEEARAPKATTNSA
P2Y purinoceptor 4, sequence (P51582 whole entry): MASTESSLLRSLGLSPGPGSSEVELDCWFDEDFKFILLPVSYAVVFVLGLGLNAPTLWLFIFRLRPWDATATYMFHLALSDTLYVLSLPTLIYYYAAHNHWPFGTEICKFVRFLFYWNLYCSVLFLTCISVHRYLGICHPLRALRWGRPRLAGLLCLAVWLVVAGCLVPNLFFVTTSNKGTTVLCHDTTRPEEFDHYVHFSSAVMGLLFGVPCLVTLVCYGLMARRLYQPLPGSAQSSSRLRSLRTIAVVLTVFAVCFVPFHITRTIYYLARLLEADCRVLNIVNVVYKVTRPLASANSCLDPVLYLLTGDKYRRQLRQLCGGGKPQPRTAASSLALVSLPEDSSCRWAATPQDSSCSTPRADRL
P2X purinoceptor 3 (Rattus norvegicus, UniProt P49654), sequence (P49654 whole entry): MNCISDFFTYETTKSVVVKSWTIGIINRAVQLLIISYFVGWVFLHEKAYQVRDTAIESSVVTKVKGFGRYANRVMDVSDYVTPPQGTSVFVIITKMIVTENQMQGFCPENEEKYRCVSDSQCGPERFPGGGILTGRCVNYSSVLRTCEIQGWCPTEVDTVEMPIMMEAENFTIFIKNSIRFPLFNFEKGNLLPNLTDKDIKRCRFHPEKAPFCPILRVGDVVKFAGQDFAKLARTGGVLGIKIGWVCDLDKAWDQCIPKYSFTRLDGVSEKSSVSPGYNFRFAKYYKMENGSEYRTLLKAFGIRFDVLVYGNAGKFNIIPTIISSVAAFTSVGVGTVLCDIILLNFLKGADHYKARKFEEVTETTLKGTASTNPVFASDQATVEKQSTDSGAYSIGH
P2Y purinoceptor 12 (Rattus norvegicus, UniProt Q9EPX4), sequence (Q9EPX4 whole entry): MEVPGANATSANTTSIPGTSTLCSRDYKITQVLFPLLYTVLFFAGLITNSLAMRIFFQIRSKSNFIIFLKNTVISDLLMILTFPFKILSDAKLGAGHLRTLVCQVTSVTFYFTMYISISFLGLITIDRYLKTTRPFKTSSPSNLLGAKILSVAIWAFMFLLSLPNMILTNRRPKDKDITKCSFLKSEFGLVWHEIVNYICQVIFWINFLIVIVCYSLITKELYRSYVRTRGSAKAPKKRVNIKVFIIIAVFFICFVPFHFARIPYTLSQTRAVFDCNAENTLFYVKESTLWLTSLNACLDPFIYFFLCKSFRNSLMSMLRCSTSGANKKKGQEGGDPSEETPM
P2X purinoceptor 7, sequence (Q64663 whole entry): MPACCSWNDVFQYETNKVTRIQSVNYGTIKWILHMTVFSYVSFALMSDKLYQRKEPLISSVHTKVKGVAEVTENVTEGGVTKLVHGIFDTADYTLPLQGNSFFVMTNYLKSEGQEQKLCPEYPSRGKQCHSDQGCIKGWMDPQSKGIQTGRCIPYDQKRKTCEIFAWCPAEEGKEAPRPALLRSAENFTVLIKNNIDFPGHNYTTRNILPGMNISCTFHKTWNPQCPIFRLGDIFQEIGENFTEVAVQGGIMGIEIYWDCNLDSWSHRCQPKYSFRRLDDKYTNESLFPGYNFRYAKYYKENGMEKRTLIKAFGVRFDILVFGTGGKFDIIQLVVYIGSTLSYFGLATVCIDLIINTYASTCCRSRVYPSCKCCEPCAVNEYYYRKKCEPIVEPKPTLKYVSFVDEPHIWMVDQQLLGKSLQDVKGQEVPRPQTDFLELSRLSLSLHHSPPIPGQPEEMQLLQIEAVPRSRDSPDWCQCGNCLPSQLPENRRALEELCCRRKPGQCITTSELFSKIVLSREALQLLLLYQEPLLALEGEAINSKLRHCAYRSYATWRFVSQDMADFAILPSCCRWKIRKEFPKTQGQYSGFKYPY

Nc1c(S(=O)(=O)O)cc(Nc2ccc(Nc3nc(Cl)nc(Nc4ccccc4S(=O)(=O)O)n3)c(S(=O)(=O)O)c2)c2c1C(=O)c1ccccc1C2=O [CIBACRON BLUE 3GA]
IC50 [1]: 9.6 µM | Kd [2]: 1.6 µM

O=C(Nc1cccc(C(=O)Nc2ccc(S(=O)(=O)O)c3cc(S(=O)(=O)O)cc(S(=O)(=O)O)c23)c1)Nc1cccc(C(=O)Nc2ccc(S(=O)(=O)O)c3cc(S(=O)(=O)O)cc(S(=O)(=O)O)c23)c1
IC50 [3]: 0.21 µM | IC50 [4]: > 50 µM | IC50 [5]: > 100 µM | IC50 [6]: 28.5 µM

Cc1ccc(C(=O)Nc2ccc(S(=O)(=O)O)c3cc(S(=O)(=O)O)cc(S(=O)(=O)O)c23)cc1NC(=O)c1cccc(NC(=O)Nc2cccc(C(=O)Nc3cc(C(=O)Nc4ccc(S(=O)(=O)O)c5cc(S(=O)(=O)O)cc(S(=O)(=O)O)c45)ccc3C)c2)c1 [SURAMIN]
EC50 [7]: > 100 µM | EC50 [8]: > 100 µM | EC50 [9]: > 100 µM | EC50 [10]: 1 µM | EC50 [11]: > 10 µM | EC50 [12]: 4 µM | EC50 [13]: 48 µM | EC50 [14]: 16 µM | EC50 [15]: 10.4 µM | inhibition [16]: 27% | EC50 [17]: 4 µM

Cc1nc(/N=N/c2cc(CP(=O)(O)O)cc(CP(=O)(O)O)c2)c(COP(=O)(O)O)c(C=O)c1O
EC50 [18]: 0.022 µM | EC50 [10]: 0.005 µM

O=S(=O)(O)c1cc(N=C=S)ccc1/C=C/c1ccc(N=C=S)cc1S(=O)(=O)O
IC50 [19]: 35 µM

CNc1nc(Cl)nc2c1ncn2CCC(COP(=O)(O)O)COP(=O)(O)O
EC50 [20]: 0.84 µM

Nc1c(S(=O)(=O)O)cc(Nc2ccc(Nc3nc(Cl)nc(Cl)n3)cc2S(=O)(=O)O)c2c1C(=O)c1ccccc1C2=O
IC50 [21]: 1.6 µM | IC50 [22]: < 1 µM

Cc1ncc2c(c1O)COP(=O)(O)OC2
IC50 [23]: > 100 µM | EC50 [24]: 100 µM | EC50 [25]: 10.2 µM

Cc1ncc(COP(=O)(O)O)c(C=O)c1O [PYRIDOXAL PHOSPHATE ANHYDROUS]
EC50 [25]: 3 µM | EC50 [26]: 219 µM

CCCSc1nc(N)c2ncn([C@@H]3O[C@H](COP(=O)(O)OP(=O)(O)C(Cl)(Cl)P(=O)(O)O)[C@@H](O)[C@H]3O)c2n1
EC50 [27]: 0.0013 µM | EC50 [28]: 1.5 µM
